In paper PMC8226262, “Licarin-B Exhibits Activity Against the Toxoplasma gondii RH Strain by Damaging Mitochondria and Activating Autophagy” (Frontiers in Cell and Developmental Biology, 2021):
Values after ≈ are worked out from the molar mass of the structure shown.

What was measured:
T. gondii [1] = test system: T. gondii; parameters: method as in Zhang J. et al., 2019; details: 50 mg/kg.bw; ref Zhang J. et al., 2019; cited from earlier work
T. gondii [2] = details: ref Zhang J. et al., 2019; cited from earlier work
[3] = test system: T. gondii invasion of HFFs; assay: Anti-invasion assessment in vitro (qPCR); assay type: cell-based, Toxoplasma gondii; details: 4.5–22.5 μg/mL, 2 h of infection
Procedure: Human foreskin fibroblasts were seeded in 6-well plates and incubated with different concentrations of licarin-B (4.5, 9, 13.5, 18, or 22.5 μg/mL), sulfadiazine (0.4 μg/mL, as a positive control) or without drugs in DMEM supplemented with 1% FBS and then infected with 3 × 10^6 fresh parasites per well. The anti-invasion capability of licarin-B was determined by qPCR after 2 h of infection, as described in a previous study ([Zhang J.L. et al., 2019]). Triplicate independent experiments were performed.

[4] = Dose safety assessment in vivo; details: mice treated with the tested doses (25 or 50 mg/kg⋅bw) for 30 days
Procedure: Dose safety assessment in vivo was performed to determine safe doses of licarin-B, as previously described.

[5] = test system: extracellular T. gondii tachyzoites; assay: MitoTracker Red CMXRos staining (mitochondrial membrane potential); assay type: cell-based, Toxoplasma gondii
Procedure: Extracellular parasites (1 × 10^5 per group) were incubated in DMEM with licarin-B (18 μg/mL) for 4, 8, or 16 h at 37°C; with licarin-B (18, 27, or 36 μg/mL) for 8 h at 37°C; or without any drug (as a control). Then, all the samples were stained with the MitoTracker Red CMXRos probe (50 nM, Invitrogen, United States) for 20 min. ([Zhang J.L. et al., 2019]). The fluorescence intensity was observed by laser confocal microscopy (ZEISS LSM-800, Jena, Germany).

[6] = test system: extracellular T. gondii tachyzoites; assay: Flow cytometry analysis of T. gondii survival (annexin V-PE / 7-AAD); assay type: cell-based, Toxoplasma gondii; details: 24 h
Procedure: Approximately 1 × 10^6 extracellular tachyzoites were incubated with licarin-B (18 or 36 μg/mL) in DMEM or with no drug as a control for 24 h, followed by centrifugation at 1,500 × g for 10 min. The samples were washed with PBS and suspended in 100 μL of binding buffer with 5 μL of annexin V-PE and 5 μL of 7-AAD dye in the dark for 20 min at 37°C. Double mixtures were acquired and analyzed by flow cytometry (BD FACSVerse, United States) ([Giovati et al., 2018]). The experiment was repeated three times.

[7] = test system: T. gondii tachyzoites (strain RH) in HFFs; assay: In vitro screening of anti-T. gondii activity (Giemsa staining, qPCR); assay type: cell-based, Toxoplasma gondii; details: 24 h
Procedure: Human foreskin fibroblasts were seeded in 6-well plates and infected with 3 × 10^4 fresh T. gondii tachyzoites. After 8 h, the natural compounds in DMEM supplemented with 1% FBS were added. Sulfadiazine and pyrimethamine were included as positive drug controls. After incubation for 24 h, the cells were washed twice with PBS, stained with Giemsa, and observed by light microscopy. In addition, total DNA was isolated from the cells using DNAiso Reagent (Takara), and a 529-bp repeat element was amplified by quantitative polymerase chain reaction (qPCR) with the following primers: Tox-F (5′-AGGAGAGATATCAGGACTGTAG-3′), Tox-R (5′-GCGTCGTCTCGTCTAGATCG-3′), and the Taqman probe Tox-TP (6-Fam CCGGCTTGGCTGCTTTTCCT BHQ1), as described in a previous study ([Zhang J.L. et al., 2019]). The inhibition rates against T. gondii proliferation for the natural compounds at concentrations with no HFF toxicity were calculated, and the inhibition rate in each treatment group was presented as the % of the control group. The experiment was repeated three times.

T. gondii tachyzoites [8] = assay: In vivo survival of acutely infected mice; parameters: species or system BALB/c mice; details: 30-day test period
Procedure: The therapeutic effect on acute infection was evaluated as described by Zhang; female BALB/c mice were divided into four groups consisting of 10 mice each, and each mouse was injected with 2 × 10^3 tachyzoites by intraperitoneal injection. Then, the mice were treated with licarin-B (25 or 50 mg/kg⋅bw), the positive drugs (100 mg/kg⋅bw sulfadiazine, 50 mg/kg⋅bw pyrimethamine, or 15 mg/kg⋅bw folinic acid) or PBS (as control) ([Si et al., 2018]). Positive drugs were administered by oral administration, and licarin-B was administered by intraperitoneal injection. […] The survival times of the infected mice and the number of deaths were monitored and recorded twice daily for 30 days.

[9] = test system: extracellular T. gondii tachyzoites; assay: DAPI staining of the nucleus; assay type: cell-based, Toxoplasma gondii; details: 18, 27, or 36 μg/mL for 16 h
Procedure: Extracellular parasites (1 × 10^5 per group) were incubated in DMEM with licarin-B (18, 27, or 36 μg/mL) or without any drug (as a control) for 16 h at 37°C. All the samples were stained with 4′,6-diamidino-2-phenylindole (DAPI) at 37°C for 10 min, and fluorescence intensity was observed by laser confocal microscopy.

T. gondii tachyzoites [10] = assay: Monodansylcadaverine (MDC) staining of autophagosomes; assay type: cell-based, Toxoplasma gondii
Procedure: For each sample, approximately 1 × 10^5 tachyzoites were treated with licarin-B (18 μg/mL) in DMEM for 4, 8, or 16 h at 37°C; licarin-B (18, 27, or 36 μg/mL) in DMEM for 8 h at 37°C; or no drug (as a control) in DMEM. Then, the samples were washed with PBS (pH 7.4), suspended in monodansylcadaverine (MDC) working solution (100 μM) at 37°C for 1 h after centrifugation, and washed twice with PBS. The tachyzoites were resuspended in 500 μL of PBS, and the fluorescence in each group was visualized by laser scanning confocal microscopy.

[11] = test system: T. gondii tachyzoite intracellular proliferation in HFFs; assay: Anti-proliferation activity of licarin-B (qPCR); assay type: cell-based, Toxoplasma gondii; details: 24 h
Procedure: DMEM without drugs was used as a parasite control. […] After 24 h, the cells were washed twice with PBS, and total genomic DNA from the cells was obtained as described in a previous study ([Zhang J.L. et al., 2019]). […] The results represent the means ± standard deviations (SD) from at least three independent experiments. The EC50 of licarin-B for tachyzoite growth inhibition was plotted as a function of the compound concentration via non-linear curve analysis using SPSS 19.0 software (SPSS Inc., Chicago, IL, United States). The results of the anti-invasion and anti-proliferation tests, the in vivo assays of the survival rate and parasite burden and data comparisons between the parasite control and treatment groups were statistically analyzed by one-way analysis of variance (ANOVA) using SPSS software.

T. gondii tachyzoites [12] = assay: In vivo parasite burden in tissues and blood (qPCR); parameters: species or system BALB/c mice; details: 50 mg/kg⋅bw, acutely infected mice
Procedure: To evaluate the therapeutic effect of licarin-B on acute infection, mice were infected intraperitoneally with 1 × 10^4 tachyzoites and then divided into three groups (six mice/group) for treatment with PBS (as a parasite control), licarin-B (50 mg/kg⋅bw), or a positive control drug, as described above ([Zhang J.L. et al., 2019]). The treatments were administered for 4 consecutive days, and then, the number of parasites in the tissue and blood samples were deduced from standard curves constructed using known numbers of tachyzoites, as previously described.

[13] = test system: T. gondii tachyzoites in HFFs; assay: Transmission electron microscopy of tachyzoites; assay type: cell-based, Toxoplasma gondii; details: 18 μg/mL
Procedure: For transmission electron microscopy (TEM) analysis, HFFs were seeded to confluence in T25 flasks and infected with 1.5 × 10^6 T. gondii tachyzoites for 8 h. After the addition of 18 μg/mL licarin-B, the cells were cultured for 4, 8, or 16 h, digested with TrypLE Express for 2 min, washed twice with PBS, fixed with 2.5% glutaraldehyde at 4°C for 12 h, washed with PBS to remove glutaraldehyde and post-fixed with 1% osmium acid solution for 1.5 h in the dark. The samples were then washed with PBS, dehydrated in a graded alcohol series, dehydrated in acetone and embedded in Epon. Ultrathin sections were stained with uranyl acetate and lead citrate and observed under a transmission electron microscope (Tecnai Spirit Bio-TWIN, Thermo Fisher Scientific, FEI, United States).

## C=CCc1cc(OC)c(O[C@@H](C)[C@H](O)c2ccc(O)c(OC)c2)c(OC)c1 [myrislignan]
T. gondii [1]
  Survival rate in mice upon acute infection: 50%
T. gondii [2]
  EC50, anti-T. gondii activity: 32.41 mg/L (≈ 86.6 µM)

## C/C=C/c1cc(OC)c2c(c1)C(C)[C@@H](c1ccc3c(c1)OCO3)O2 (stereo partly drawn) [Licarin-B, 5-[(2S)-2,3-D\dihydro-7-methoxy-3β-methyl-5-[(E)-1-propenyl]benzofuran-2-yl]-1,3-benzodioxole]
[3]
  Inhibition of T. gondii invasion vs control: significantly (p < 0.01) inhibited T. gondii invasion
[4]
  Clinical toxicity: no discernible clinical toxicity was observed
[5]; 18 μg/mL for 4, 8, or 16 h
  Mitochondrial membrane potential (ΔΨm): decreased the ΔΨm in T. gondii in a time-dependent manner
[5]; 18, 27, or 36 μg/mL for 8 h
  Mitochondrial membrane potential (ΔΨm): the ΔΨm was reduced in a dose-dependent manner
[6]; 18 μg/mL
  T. gondii survival rate: approximately 45%
[6]; 36 μg/mL
  T. gondii survival rate: ~26%
[7]; 200 μg/mL, T. gondii proliferation in HFFs
  Mean inhibition rate (% of control): 99.76 ± 5.81%
[7]; Giemsa staining, maximum concentration safe for HFFs (licarin-B 200 μg/mL)
  Parasitophorous vacuoles (PVs) in host cells: no parasitophorous vacuoles (PVs) in host cells
T. gondii tachyzoites [8]; 25 mg/kg⋅bw intraperitoneal once daily for 15 days
  Survival rate of infected mice: 60%
T. gondii tachyzoites [8]; 50 mg/kg⋅bw intraperitoneal once daily for 15 days
  Survival rate of infected mice: 90%
[9]
  DAPI staining of parasite nuclei: diffuse fluorescent signal in the parasite nuclei
T. gondii tachyzoites [10]; 18 μg/mL for 4, 8, or 16 h
  MDC labelling of autophagosomes: some parasites were positive for MDC
T. gondii tachyzoites [10]; 18, 27, and 36 μg/mL for 8 h
  MDC labelling of autophagosomes: autophagy was induced in T. gondii in a concentration-dependent manner
[11]; 4.5–45 μg/mL
  Inhibition of T. gondii tachyzoite intracellular proliferation vs control: significantly (p < 0.01) inhibited T. gondii tachyzoite intracellular proliferation in a concentration-dependent manner
[11]; intracellular proliferation in HFFs
  EC50 for T. gondii tachyzoite growth inhibition: 14.05 ± 3.96 mg/L
T. gondii tachyzoites [12]
  Parasite loads in the blood and brain, liver, and spleen tissues vs parasite control: significantly (p < 0.01) reduced the parasite loads
[13]; 4 h
  Ultrastructural changes in tachyzoites (TEM): slight mitochondrial swelling and a double membrane structure
[13]; 8 h
  Ultrastructural changes in tachyzoites (TEM): mitochondrial swelling, cristae disruption, vacuole formation, and an autophagy-like double membrane structure in the cytoplasm
[13]; 16 h
  Ultrastructural changes in tachyzoites (TEM): extensive clefts around the nucleus, nuclear membrane disappearance, and progressive degeneration of the parasites
